One assay has as its target mTOR (human) (Homo sapiens (Human), UniProt P42345). Put plainly: mTOR (human) kinase assay, [γ-33P-ATP] filter assay. It is filed as biochemical. As to conditions: for ratio IC50 (ATM) : IC50 (mTOR), selectivity with respect to mTOR: as printed:
How it is done: Furthermore, the effect, in particular inhibition, of other kinases and thus the selectivity of the compounds according to the invention can be determined with the aid of the following assay:
mTOR (human) was incubated with 50 mM HEPES pH 7.5, 1 mM EGTA, 0.01% Tween 20, 2 mg/ml of the substrate, 3 mM MnCl2 and [γ-^33P-ATP] (specific activity approximately 500 cpm/pmol, concentration as necessary). The reaction was initiated by addition of MgATP solution. After incubation at room temperature for 40 minutes, the reaction was stopped by addition of 3% phosphoric acid. 10 μl of the reaction solution were then transferred dropwise onto a P30 filtermat and washed three times for 5 min in 75 mM phosphoric acid and once in methanol, dried and evaluated by means of liquid scintillation counting.

Another assay has as its target PI3K p110α/p85α (human) (Homo sapiens (Human), UniProt P42336). Nature of the assay: PI3K p110α/p85α (human), non-radioactive assay (HTRF). It is filed as biochemical. As to conditions: for IC50: read-out: IC50 (PI3Kalpha); for ratio IC50 (ATM) vs PI3Kalpha, selectivity with respect to PI3Kalpha: as printed:
As to the method:
PI3K p110α/p85α (Human), Non-radioactive Assay
(§1) PI3K p110α/p85α (human) was incubated in an assay buffer comprising 10 μM phosphati-dylinositol 4,5-bisphosphate and MgATP (concentration as necessary). The reaction was initiated by addition of MgATP solution. After incubation at room temperature for 40 minutes, the reaction was stopped by addition of a solution consisting of EDTA and biotinylated phosphatidylinositol 3,4,5-trisphosphate. Finally, the detection buffer, consisting of a europium-labelled anti-GST monoclonal antibody, a GST-labelled GRP1 PH domain and streptavidin allophycocyanin, was added. The plate was read out via homogeneous time-resolved fluorescence (HTRF) and the corresponding signals were evaluated via the formula HTRF=10000×(Em665nm/Em620nm).
(In general: Time-resolved FRET reads energy transfer from a long-lived donor to a nearby acceptor.)

In assay [1] the target is purified human recombinant ATM (ataxia telangiectasia mutated), full length (Homo sapiens (Human), UniProt Q13315). Nature of the assay: ATM kinase assay - determination of ATM inhibition (IC50 ATM), TR-FRET. It is filed as biochemical. The essentials: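 Full-length enzyme, expressed in a mammalian cell line, pre-incubated 15 min with inhibitor in 25 mM HEPES pH 8.0, 10 mM Mg(CH3COO)2, 1 mM MnCl2, 0,1% BSA, 0,01% Brij 35, 5 mM DTT. Full-length cmyc-p53 (Sf21-expressed) and ATP then added, 30-35 min at 22° C. EDTA stop; p53 S15 phosphorylation read by TR-FRET antibodies.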

A further assay has as its target PI3K (p120γ) (human) (Homo sapiens (Human), UniProt P48736). Put plainly: PI3K (p120γ) (human), non-radioactive assay (HTRF). It is filed as biochemical. As to conditions: for IC50: read-out: IC50 (PI3Kgamma); for ratio IC50 (ATM) vs PI3Kgamma, selectivity with respect to PI3Kgamma: as printed:
As to the method: PI3K (p120γ) (Human), Non-radioactive Assay
as §1, with “(p120γ)” for “p110α/p85α”, “After an” for “After”, “incubation time of 30 min” for “incubation”, “temperature,” for “temperature for 40 minutes,”, “HTRF=10000×(Em665nm/Em620nm). • MgATP=magnesium 5′-O—[hydroxy({[(hydroxyphosphinato)oxy]phosphinato}oxy)phosphoryl]adenosine • MgCl2=magnesium dichloride • EGTA=ethylene glycol bis(aminoethyl ether) N,N,N′,N′-tetraacetic acid • Tween 20=polysorbate 20 Medicament/pharmaceutical Composition” for “HTRF=10000×(Em665nm/Em620nm).”

Assay [2] deals with phosphorylation of CHK2 (phospho-Thr68) in HCT116 cells. Put plainly: Cellular pCHK2 assay: bleomycin-induced phosphorylation of CHK2 (phospho-Thr68), immunofluorescence high-content analysis. It is filed as cell-based, human. As to conditions: Homo sapiens, HCT-116, 4 h, read-out: IC50 (pCHK2). The text has this: For the identification of substances which inhibit the phosphorylation of the protein kinase CHK2 at the amino acid threonine 68, an immunofluorescence-based “high content” analysis assay was used in HCT116 cells.
In vitro cell-based immunofluorescence assay for the identification of inhibitors of bleomycin-induced phosphorylation of CHK2 (phospho-Thr68) in the human colon carcinoma cell line HCT116:
HCT116 cells are sown out in a defined cell density in 384-well plates in culture medium (DMEM high glucose, 2 mM GlutaMax, 1 mM Na pyruvate, 10% FCS) and incubated overnight at 37° C. and 10% of CO2. On the following day, the test substances are added in a defined concentration range (1 nM to 30 μM) in combination with 10 μM bleomycin, where the concentration of the solvent DMSO is kept constant at 0.5%. […] Parallel staining of DNA with propidium iodide enables determination of the cell count. The pCHK2 signal is detected using a high-content imager (Molecular Devices IMX Ultra) and automatic image analysis using the MetaXpress software belonging to the instrument. The number of cell nuclei which have a pCHK2 signal above a defined background is determined.

The next assay concerns the target PI3K p110δ/p85α (human) (Homo sapiens (Human), UniProt O00329). Put plainly: PI3K p110δ/p85α (human), non-radioactive assay (HTRF). The conditions noted are these: for IC50: read-out: IC50 (PI3Kdelta); for ratio IC50 (ATM) vs PI3Kdelta, selectivity with respect to PI3Kdelta: as printed:
It is filed as biochemical. As to the method:
PI3K p110δ/p85α (Human), Non-radioactive Assay
as §1, with “p110δ/p85α” for “p110α/p85α”, “After an” for “After”, “incubation time of 30 min” for “incubation”, “temperature,” for “temperature for 40 minutes,”

For the next assay, the target named is PI3K p110β/p85α (human) (Homo sapiens (Human), UniProt P42338). Nature of the assay: PI3K p110β/p85α (human), non-radioactive assay (HTRF). It is filed as biochemical. As to conditions: IC50 (ATM) at least 2000 times higher compared with IC50 (PI3Kbeta). As to the method:
PI3K p110β/p85α (Human), Non-radioactive Assay
as §1, with “p110β/p85α” for “p110α/p85α”, “After an” for “After”, “incubation time of 30 min” for “incubation”, “temperature,” for “temperature for 40 minutes,”

Read-outs that look alike come from different tables or passages of the source.

purified human recombinant ATM (ataxia telangiectasia mutated), full length, sequence (Q13315 whole entry, change not shown): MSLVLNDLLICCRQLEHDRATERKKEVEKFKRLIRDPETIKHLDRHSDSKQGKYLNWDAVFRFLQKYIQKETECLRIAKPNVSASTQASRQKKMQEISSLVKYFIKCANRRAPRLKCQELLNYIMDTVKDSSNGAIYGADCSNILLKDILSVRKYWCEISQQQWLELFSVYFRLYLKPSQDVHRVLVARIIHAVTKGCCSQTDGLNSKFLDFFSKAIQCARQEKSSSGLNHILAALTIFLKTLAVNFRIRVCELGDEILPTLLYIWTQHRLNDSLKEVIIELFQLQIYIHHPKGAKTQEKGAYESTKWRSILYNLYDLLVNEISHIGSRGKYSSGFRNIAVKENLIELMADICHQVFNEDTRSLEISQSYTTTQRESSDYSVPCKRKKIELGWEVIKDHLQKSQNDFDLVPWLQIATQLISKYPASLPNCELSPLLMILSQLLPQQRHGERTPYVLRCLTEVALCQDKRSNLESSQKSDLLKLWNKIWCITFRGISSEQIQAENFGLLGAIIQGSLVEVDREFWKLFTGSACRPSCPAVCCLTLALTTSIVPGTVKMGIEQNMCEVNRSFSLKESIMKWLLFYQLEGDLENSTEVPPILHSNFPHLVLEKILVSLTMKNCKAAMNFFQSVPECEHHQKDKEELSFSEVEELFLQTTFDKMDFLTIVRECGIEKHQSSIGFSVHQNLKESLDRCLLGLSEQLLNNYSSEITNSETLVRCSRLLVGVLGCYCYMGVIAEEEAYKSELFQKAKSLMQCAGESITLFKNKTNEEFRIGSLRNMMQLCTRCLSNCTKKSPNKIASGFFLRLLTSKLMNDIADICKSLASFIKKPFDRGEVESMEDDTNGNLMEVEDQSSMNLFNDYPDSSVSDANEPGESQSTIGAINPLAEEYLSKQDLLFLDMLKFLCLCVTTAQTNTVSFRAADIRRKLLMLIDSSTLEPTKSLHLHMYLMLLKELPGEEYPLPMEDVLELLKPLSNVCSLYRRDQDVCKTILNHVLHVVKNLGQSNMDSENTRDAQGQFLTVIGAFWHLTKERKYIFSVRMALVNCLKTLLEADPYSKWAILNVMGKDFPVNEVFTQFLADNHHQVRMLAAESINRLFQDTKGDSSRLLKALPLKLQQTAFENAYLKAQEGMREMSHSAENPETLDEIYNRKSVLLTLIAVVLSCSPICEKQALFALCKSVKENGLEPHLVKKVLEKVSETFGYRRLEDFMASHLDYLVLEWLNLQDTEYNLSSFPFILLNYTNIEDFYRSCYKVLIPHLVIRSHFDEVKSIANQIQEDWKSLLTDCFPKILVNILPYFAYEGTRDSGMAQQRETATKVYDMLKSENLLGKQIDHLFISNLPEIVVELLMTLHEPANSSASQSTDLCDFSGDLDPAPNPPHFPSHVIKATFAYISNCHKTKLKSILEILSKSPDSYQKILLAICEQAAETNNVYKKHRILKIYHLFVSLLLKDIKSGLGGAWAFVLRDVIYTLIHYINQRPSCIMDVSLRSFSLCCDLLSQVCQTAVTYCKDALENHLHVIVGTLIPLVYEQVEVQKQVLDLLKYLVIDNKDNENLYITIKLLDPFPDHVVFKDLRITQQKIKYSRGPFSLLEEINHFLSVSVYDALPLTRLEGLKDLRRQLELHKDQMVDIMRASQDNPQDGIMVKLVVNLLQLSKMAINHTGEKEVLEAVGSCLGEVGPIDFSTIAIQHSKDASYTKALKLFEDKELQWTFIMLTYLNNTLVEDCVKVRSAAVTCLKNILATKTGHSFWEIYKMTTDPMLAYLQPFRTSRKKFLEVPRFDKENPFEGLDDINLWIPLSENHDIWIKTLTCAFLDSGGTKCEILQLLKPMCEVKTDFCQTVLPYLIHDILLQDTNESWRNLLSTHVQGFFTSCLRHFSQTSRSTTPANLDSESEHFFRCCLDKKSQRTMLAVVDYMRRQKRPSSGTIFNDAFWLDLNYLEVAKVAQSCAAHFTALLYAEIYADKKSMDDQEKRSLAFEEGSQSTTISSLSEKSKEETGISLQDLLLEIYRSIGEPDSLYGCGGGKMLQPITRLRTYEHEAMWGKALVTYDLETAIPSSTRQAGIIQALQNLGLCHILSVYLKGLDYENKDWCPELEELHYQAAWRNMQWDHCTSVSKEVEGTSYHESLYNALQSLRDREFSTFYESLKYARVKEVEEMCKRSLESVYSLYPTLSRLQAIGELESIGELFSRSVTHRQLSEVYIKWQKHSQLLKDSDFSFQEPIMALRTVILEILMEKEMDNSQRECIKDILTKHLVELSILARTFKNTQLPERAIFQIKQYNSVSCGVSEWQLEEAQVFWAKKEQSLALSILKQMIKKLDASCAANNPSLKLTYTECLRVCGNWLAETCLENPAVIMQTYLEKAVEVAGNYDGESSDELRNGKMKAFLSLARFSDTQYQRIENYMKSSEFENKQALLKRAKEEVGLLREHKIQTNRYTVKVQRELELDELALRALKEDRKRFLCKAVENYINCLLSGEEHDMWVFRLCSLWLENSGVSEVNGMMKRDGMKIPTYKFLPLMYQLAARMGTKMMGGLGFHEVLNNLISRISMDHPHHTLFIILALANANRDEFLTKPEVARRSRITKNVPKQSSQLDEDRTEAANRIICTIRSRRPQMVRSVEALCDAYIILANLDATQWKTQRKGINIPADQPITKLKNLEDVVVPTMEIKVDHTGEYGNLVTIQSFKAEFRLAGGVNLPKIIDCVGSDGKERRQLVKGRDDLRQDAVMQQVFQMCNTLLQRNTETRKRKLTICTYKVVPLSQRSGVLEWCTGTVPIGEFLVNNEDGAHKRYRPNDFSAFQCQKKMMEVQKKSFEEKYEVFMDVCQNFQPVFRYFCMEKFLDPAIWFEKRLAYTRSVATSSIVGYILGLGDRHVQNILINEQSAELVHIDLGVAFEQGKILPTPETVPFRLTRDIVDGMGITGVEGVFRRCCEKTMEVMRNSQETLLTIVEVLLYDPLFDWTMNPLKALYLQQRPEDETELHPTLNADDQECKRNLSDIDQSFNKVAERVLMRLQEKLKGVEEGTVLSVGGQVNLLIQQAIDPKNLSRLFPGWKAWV
PI3K p110β/p85α (human), sequence (P42338 whole entry): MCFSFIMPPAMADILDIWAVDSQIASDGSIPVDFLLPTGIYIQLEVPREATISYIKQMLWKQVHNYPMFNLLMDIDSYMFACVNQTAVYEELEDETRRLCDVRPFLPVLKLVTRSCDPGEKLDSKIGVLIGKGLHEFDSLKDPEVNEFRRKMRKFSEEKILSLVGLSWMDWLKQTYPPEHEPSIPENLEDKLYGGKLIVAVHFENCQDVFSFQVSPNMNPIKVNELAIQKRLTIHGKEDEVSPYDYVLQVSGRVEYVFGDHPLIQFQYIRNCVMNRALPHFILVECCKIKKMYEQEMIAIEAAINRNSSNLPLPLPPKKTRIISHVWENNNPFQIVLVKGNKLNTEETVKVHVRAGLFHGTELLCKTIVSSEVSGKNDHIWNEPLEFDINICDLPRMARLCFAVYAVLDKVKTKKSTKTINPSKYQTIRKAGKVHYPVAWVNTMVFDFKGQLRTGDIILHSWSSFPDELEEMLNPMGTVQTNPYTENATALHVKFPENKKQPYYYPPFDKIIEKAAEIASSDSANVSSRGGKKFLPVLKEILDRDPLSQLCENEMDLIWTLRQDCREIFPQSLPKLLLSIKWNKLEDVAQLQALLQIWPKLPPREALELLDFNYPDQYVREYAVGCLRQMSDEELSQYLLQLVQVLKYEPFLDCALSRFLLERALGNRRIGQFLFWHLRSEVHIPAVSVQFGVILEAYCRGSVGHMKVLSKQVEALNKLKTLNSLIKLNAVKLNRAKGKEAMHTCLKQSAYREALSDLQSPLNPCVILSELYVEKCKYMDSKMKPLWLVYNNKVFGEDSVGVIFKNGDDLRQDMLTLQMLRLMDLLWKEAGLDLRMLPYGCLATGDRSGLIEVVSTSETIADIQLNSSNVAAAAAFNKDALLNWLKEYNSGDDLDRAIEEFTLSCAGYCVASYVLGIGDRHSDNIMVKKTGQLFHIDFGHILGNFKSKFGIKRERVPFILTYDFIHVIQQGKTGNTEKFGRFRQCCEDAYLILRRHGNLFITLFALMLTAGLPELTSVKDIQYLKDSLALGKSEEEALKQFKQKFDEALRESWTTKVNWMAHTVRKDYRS
PI3K p110β/p85α (human), sequence (P27986 whole entry partner): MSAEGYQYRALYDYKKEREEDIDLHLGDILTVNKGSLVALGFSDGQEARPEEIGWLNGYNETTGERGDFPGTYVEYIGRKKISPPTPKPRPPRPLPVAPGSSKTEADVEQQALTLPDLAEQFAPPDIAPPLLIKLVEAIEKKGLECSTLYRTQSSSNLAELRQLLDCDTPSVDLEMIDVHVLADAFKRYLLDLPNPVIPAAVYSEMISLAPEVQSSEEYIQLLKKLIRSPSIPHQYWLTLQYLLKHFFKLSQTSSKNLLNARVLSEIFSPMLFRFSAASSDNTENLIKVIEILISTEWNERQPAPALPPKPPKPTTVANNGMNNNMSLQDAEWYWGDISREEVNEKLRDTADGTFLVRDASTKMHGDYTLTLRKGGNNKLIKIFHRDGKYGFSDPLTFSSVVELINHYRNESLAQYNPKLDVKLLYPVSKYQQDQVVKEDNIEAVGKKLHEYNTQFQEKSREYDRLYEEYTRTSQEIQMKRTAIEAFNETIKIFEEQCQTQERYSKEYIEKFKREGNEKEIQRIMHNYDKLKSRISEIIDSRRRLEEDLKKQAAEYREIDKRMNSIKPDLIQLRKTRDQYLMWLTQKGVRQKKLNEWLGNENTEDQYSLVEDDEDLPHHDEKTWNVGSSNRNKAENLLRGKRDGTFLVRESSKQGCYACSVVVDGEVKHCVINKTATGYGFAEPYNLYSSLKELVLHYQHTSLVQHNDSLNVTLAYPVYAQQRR

On to `COc1cc2ncc3c(c2cc1-c1cn(C)nc1C)n(-c1c(C)cncc1F)c(=O)n3C` [Compound Example 39, 8-(1,3-Dimethyl-1H-pyrazol-4-yl)-1-(3-fluoro-5-methyl-pyridin-4-yl)-7-methoxy-3-methyl-1,3-dihydroimidazo-[4,5-c]quinolin-2-one], for which the IC50 at mTOR (human) was greater than 30000 nM; at PI3K p110α/p85α (human), greater than 30000 nM; in assay [1], less than 1 nM; in assay [1] (10 μM ATP, substrate p53), less than 1 nM; on PI3K (p120γ) (human), greater than 30000 nM; in assay [2], 200 to 1000 nM. On PI3K p110δ/p85α (human), the IC50 is greater than 30000 nM.
On to `CCc1cncc(C)c1-n1c(=O)n(C)c2cnc3cc(OC)c(-c4cnn(C)c4)cc3c21` [Compound Example 54, 1-(3-Ethyl-5-methylpyridin-4-yl)-7-methoxy-3-methyl-8-(1-methyl-1H-pyrazol-4-yl)-1,3-dihydroimidazo[4,5-c]-quinolin-2-one], for which the IC50 was greater than 30000 nM on mTOR (human); greater than 30000 nM on PI3K p110α/p85α (human); less than 10 nM in assay [1]; less than 10 nM in assay [1] (10 μM ATP, substrate p53); greater than 30000 nM at PI3K (p120γ) (human); 200 to 1000 nM in assay [2]. On PI3K p110δ/p85α (human), the IC50 was greater than 30000 nM.
On to `COc1cc2ncc3[nH]c(=O)n(-c4ncc(F)cc4F)c3c2cc1-c1cn(C)nc1C` [compound 108, 1-(3,5-Difluoropyridin-2-yl)-8-(1,3-dimethyl-1H-pyrazol-4-yl)-7-methoxy-1,3-dihydroimidazo[4,5-c]-quinolin-2-one], for which the “ratio IC50 (ATM) vs PI3Kalpha, selectivity with respect to PI3Kalpha” value at PI3K p110α/p85α (human) is recorded as “at least 2000 times”. Further, the “fold selectivity for ATM over PI3Kbeta (IC50 PI3Kbeta / IC50 ATM)” value (“fold selectivity … (IC50 PI3Kbeta / IC50 ATM)” for short) at PI3K p110β/p85α (human) is given as “at least 2000 times”. Besides, the IC50 in assay [1] (10 μM ATP, substrate p53) was less than 1 nM; in assay [2], 200 to 1000 nM. For the same molecule, the “ratio IC50 (ATM) vs PI3Kgamma, selectivity with respect to PI3Kgamma” value on PI3K (p120γ) (human) was “at least 2000 times”. In addition, the “ratio IC50 (ATM) vs PI3Kdelta, selectivity with respect to PI3Kdelta” value on PI3K p110δ/p85α (human) is listed as “at least 2000 times”.
Regarding `COc1cc2ncc3c(c2cc1-c1cnn(C)c1)n(-c1c(C)n[nH]c1C)c(=O)n3C` [compound 118, 1-(3,5-Dimethyl-1H-pyrazol-4-yl)-7-methoxy-3-methyl-8-(1-methyl-1H-pyrazol-4-yl)-1,3-dihydroimidazo[4,5-c]-quinolin-2-one], the “ratio IC50 (ATM) : IC50 (mTOR), selectivity with respect to mTOR” value at mTOR (human) is recorded as “at least 2000 times”. For the same molecule, the “fold selectivity … (IC50 PI3Kbeta / IC50 ATM)” value on PI3K p110β/p85α (human) is “at least 2000 times”. For the same molecule, the IC50 is less than 10 nM in assay [1] (10 μM ATP, substrate p53) and 200 to 1000 nM in assay [2].
On to `CCc1cncc(F)c1-n1c(=O)n(C)c2cnc3cc(OC)c(-c4cn[nH]n4)cc3c21` [compound 125, 1-(3-Ethyl-5-fluoropyridin-4-yl)-7-methoxy-3-methyl-8-(2H-1,2,3-triazol-4-yl)-1,3-dihydroimidazo[4,5-c] quinolin-2-one], for which, at PI3K p110α/p85α (human), the “ratio IC50 (ATM) vs PI3Kalpha, selectivity with respect to PI3Kalpha” value is “at least 2000 times”. Besides, the “fold selectivity … (IC50 PI3Kbeta / IC50 ATM)” value on PI3K p110β/p85α (human) is given as “at least 2000 times”. The IC50 in assay [1] (10 μM ATP, substrate p53) was less than 1 nM; in assay [2], 200 to 1000 nM. Further, at PI3K (p120γ) (human), the “ratio IC50 (ATM) vs PI3Kgamma, selectivity with respect to PI3Kgamma” value is listed as “at least 2000 times”. Besides, the “ratio IC50 (ATM) vs PI3Kdelta, selectivity with respect to PI3Kdelta” value on PI3K p110δ/p85α (human) is “at least 2000 times”.
In the case of `COc1cc2ncc3c(c2cc1-c1ccc2nc(C)[nH]c2c1)n(-c1c(F)cncc1OC)c(=O)n3C` [compound 136, 1-(3-Fluoro-5-methoxy-pyridin-4-yl)-7-methoxy-3-methyl-8-(2-methyl-3H-benzoimidazol-5-yl)-1,3-dihydroimidazo[4,5-c]-quinolin-2-one], the “fold selectivity … (IC50 PI3Kbeta / IC50 ATM)” value at PI3K p110β/p85α (human) is on record as “at least 2000 times”. In addition, the IC50 in assay [1] (10 μM ATP, substrate p53) was less than 1 nM; in assay [2] it was less than 200 nM. The “ratio IC50 (ATM) vs PI3Kgamma, selectivity with respect to PI3Kgamma” value on PI3K (p120γ) (human) is “at least 2000 times”.
With `[2H]C([2H])([2H])Oc1cncc(F)c1-n1c(=O)n(C)c2cnc3cc(OC)c(-c4cnn(C)c4)cc3c21` [compound 145, 1-[3-Fluoro-5-(trideuterio-methoxy)-4-pyridyl]-7-methoxy-3-methyl-8-(1-methylpyrazol-4-yl)imidazo-[4,5-c]quinolin-2-one], the “ratio IC50 (ATM) : IC50 (mTOR), selectivity with respect to mTOR” value at mTOR (human) is on record as “at least 2000 times”. The “fold selectivity … (IC50 PI3Kbeta / IC50 ATM)” value at PI3K p110β/p85α (human) is given as “at least 2000 times”. The IC50 in assay [1] (10 μM ATP, substrate p53) is less than 1 nM; in assay [2] it was 200 to 1000 nM. Also, the “ratio IC50 (ATM) vs PI3Kgamma, selectivity with respect to PI3Kgamma” value at PI3K (p120γ) (human) was “at least 2000 times”. Further, on PI3K p110δ/p85α (human), the “ratio IC50 (ATM) vs PI3Kdelta, selectivity with respect to PI3Kdelta” value was “at least 2000 times”.
For `COc1ccc(-c2cc3c(cc2OC)ncc2c3n(-c3cn(C)nc3F)c(=O)n2C)cn1` [compound 159, 1-(3-Fluoro-1-methyl-1H-pyrazol-4-yl)-7-methoxy-8-(6-methoxypyridin-3-yl)-3-methyl-1,3-dihydroimidazo-[4,5-c]quinolin-2-one], the “fold selectivity … (IC50 PI3Kbeta / IC50 ATM)” value on PI3K p110β/p85α (human) is “at least 2000 times”. Further, the IC50 is less than 10 nM in assay [1] (10 μM ATP, substrate p53) and 1000 to 2000 nM in assay [2].
With `COc1cc2ncc3c(c2cc1-c1cnn(C)c1)n(-c1ncc(OCS(C)(=O)=O)cc1F)c(=O)n3C` [compound 201, 1-(3-Fluoro-5-methyl-sulfonylmethoxypyridin-2-yl)-7-methoxy-3-methyl-8-(1-methyl-1H-pyrazol-4-yl)-1,3-dihydroimidazo[4,5-c]-quinolin-2-one], on PI3K p110α/p85α (human), the “ratio IC50 (ATM) vs PI3Kalpha, selectivity with respect to PI3Kalpha” value is reported as “at least 2000 times”. Besides, the “fold selectivity … (IC50 PI3Kbeta / IC50 ATM)” value at PI3K p110β/p85α (human) is reported as “at least 2000 times”. In addition, the IC50 in assay [1] (10 μM ATP, substrate p53) was less than 1 nM; in assay [2], less than 200 nM. The “ratio IC50 (ATM) vs PI3Kgamma, selectivity with respect to PI3Kgamma” value on PI3K (p120γ) (human) was “at least 2000 times”. Moreover, the “ratio IC50 (ATM) vs PI3Kdelta, selectivity with respect to PI3Kdelta” value at PI3K p110δ/p85α (human) was “at least 2000 times”.
